Experimental data reported in the supplement of paper PMC10307832.

Key:
Test in all cases: relative viability (nuclei count vs DMSO), 5 days (fraction); higher = more cells survive
BMX-IN-1 + Bortezomib = compound: C=CC(=O)Nc1cc(-n2c(=O)ccc3cnc4ccc(-c5ccc(NS(C)(=O)=O)cc5)cc4c32)ccc1C [BMX-IN-1] + CC(C)C[C@H](NC(=O)[C@H](Cc1ccccc1)NC(=O)c1cnccn1)B(O)O [Bortezomib] (partner 0.002 µM)
Procedure, shortened: (§1)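 Relative viability was taken as the ratio of nuclei in treated wells to nuclei in vehicle wells. Lung cancer cell lines in 1536-well plates received compounds by pin tool one day after seeding, either one drug alone or a fixed anchor-drug dose plus five library-drug doses (not always all listed) in √10 steps. Nuclei were counted on 4× images after 5 days of treatment, and values are medians of duplicate plates.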

BMX-IN-1 + Tozasertib = compound: C=CC(=O)Nc1cc(-n2c(=O)ccc3cnc4ccc(-c5ccc(NS(C)(=O)=O)cc5)cc4c32)ccc1C [BMX-IN-1] + Cc1cc(Nc2cc(N3CCN(C)CC3)nc(Sc3ccc(NC(=O)C4CC4)cc3)n2)n[nH]1 [Tozasertib] (partner 0.1 µM)
Procedure, shortened: as §1

PAC-1 + Navitoclax = compound: C=CCc1cccc(/C=N/NC(=O)CN2CCN(Cc3ccccc3)CC2)c1O [PAC-1] + CC1(C)CCC(c2ccc(Cl)cc2)=C(CN2CCN(c3ccc(C(=O)NS(=O)(=O)c4ccc(N[C@H](CCN5CCOCC5)CSc5ccccc5)c(S(=O)(=O)C(F)(F)F)c4)cc3)CC2)C1 [Navitoclax] (partner 0.5 µM)
Procedure, shortened: as §1

PAC-1 + Pemetrexed = compound: C=CCc1cccc(/C=N/NC(=O)CN2CCN(Cc3ccccc3)CC2)c1O [PAC-1] + Nc1nc2[nH]cc(CCc3ccc(C(=O)N[C@@H](CCC(=O)O)C(=O)O)cc3)c2c(=O)[nH]1 [Pemetrexed] (partner 0.2 µM)
Procedure, shortened: as §1

PAC-1 + Decitabine = compound: C=CCc1cccc(/C=N/NC(=O)CN2CCN(Cc3ccccc3)CC2)c1O [PAC-1] + Nc1ncn([C@H]2C[C@H](O)[C@@H](CO)O2)c(=O)n1 [Decitabine] (partner 2 µM)
Procedure, shortened: as §1

Cell Line	relative viability (BMX-IN-1 + Bortezomib; first compound 0.02 µM)	relative viability (BMX-IN-1 + Bortezomib; first compound 0.2 µM)	relative viability (BMX-IN-1 + Bortezomib; first compound 0.6325 µM)	relative viability (BMX-IN-1 + Bortezomib; first compound 2 µM)	relative viability (BMX-IN-1 + Tozasertib; first compound 0.02 µM)	relative viability (BMX-IN-1 + Tozasertib; first compound 0.2 µM)	relative viability (BMX-IN-1 + Tozasertib; first compound 0.6325 µM)	relative viability (BMX-IN-1 + Tozasertib; first compound 2 µM)	relative viability (PAC-1 + Navitoclax; first compound 0.02 µM)	relative viability (PAC-1 + Navitoclax; first compound 0.06325 µM)	relative viability (PAC-1 + Navitoclax; first compound 0.2 µM)	relative viability (PAC-1 + Navitoclax; first compound 2 µM)	relative viability (PAC-1 + Pemetrexed; first compound 0.02 µM)	relative viability (PAC-1 + Pemetrexed; first compound 0.06325 µM)	relative viability (PAC-1 + Pemetrexed; first compound 0.2 µM)	relative viability (PAC-1 + Pemetrexed; first compound 2 µM)	relative viability (PAC-1 + Decitabine; first compound 0.02 µM)	relative viability (PAC-1 + Decitabine; first compound 0.06325 µM)	relative viability (PAC-1 + Decitabine; first compound 0.2 µM)	relative viability (PAC-1 + Decitabine; first compound 2 µM)
NCI-H2085	1.14	0.998	1.2	1.16	0.873	0.754	0.794	0.734	1.1	1.08	1.12	1.16	0.945	0.885	0.953	1.03	0.554	0.504	0.572	0.492
LCLC-97TM1	0.332	0.562	0.629	0.505	0.203	0.274	0.289	0.203		0.395	0.307	0.62	0.184	0.177		0.191	0.229	0.215		0.261
EKVX	1.42	1.23	1.11	1.19	0.519	0.468	0.445	0.383	1.07	0.926	0.86	0.979	0.356	0.407	0.355	0.395	0.216	0.315	0.378	0.319
PC-14	0.934	0.953	1.01	0.954	0.672	0.658	0.605	0.571	0.968	0.975	0.959	1.03	0.13	0.139	0.126	0.179	0.214	0.235	0.172	0.221
NCI-H1355	1.26	1.21	1.4	1.22	0.607	0.664	0.532	0.518	0.866	0.961	0.965	0.962	1.01	1.06	1.01	1.11	0.32	0.363	0.335	0.373
NCI-H2009	1.07	1.19	1.16	1.01	0.826	0.853	0.781	0.712	1.16	1.18	1.22	1.16	1.03	0.989	1.1	0.989	0.377	0.339	0.316	0.354
HARA	1.14	1.62	1.16	1.22	0.0824	0.0995	0.111	0.092	1.15	1.11	1.14	1.15	0.23	0.234	0.264	0.239	0.573	0.688	0.507	0.487
H3255	0.916	0.466	0.99	0.732	0.788	0.648	0.577	0.624	0.544	0.537	0.561	0.595	0.601	0.521	0.495	0.596	0.593	0.849	0.534	0.63
SW 1573	1.38	1.06	1.08	0.996	0.115	0.175	0.185	0.177	0.825	1.03	0.825	1.03	0.831	0.778	0.83	0.855	0.532	0.551	0.432	0.564
NCI-H1666	0.799	0.821	0.823	0.728	0.595	0.57	0.624	0.593	1.14	0.915	0.933	1.04	0.643	0.889	0.849	0.799	0.721	0.763	0.713	0.713
NCI-H1993	1.1	1.11		0.959	0.624	0.652	0.585	0.498	0.85	0.814	0.837	0.95	0.636	0.565	0.59	0.589	0.737	0.58	0.595	0.541
HCC-366	1.88	1.78	1.28	1.09	0.0929	0.0929	0.112	0.1	1.13	1.01	1.1	1.09	0.176	0.162	0.159	0.164	0.373	0.303	0.264	0.337
EMC-BAC-2	1.15	1.1	1.26	1.1	0.286	0.287	0.289	0.274	1.14	1.22	1.19	1.14	0.49	0.479	0.46	0.464	0.924	0.989	0.895	1.01
NCI-H1975	0.356	0.338	0.45	0.433	0.958	1.1	0.792	0.695	1.12	1.2	1.12	1.06	0.295	0.279	0.306	0.289	0.413	0.408	0.333	0.388
NCI-H1437	0.567	0.472	0.586	0.456	0.497	0.43	0.38	0.414	1.04	1.12	1.01	0.775	0.31	0.32	0.305	0.3	0.568	0.587	0.583	0.537
NCI-H2347	0.985	1.24	1.14	1	0.518	0.471	0.585	0.537	0.817	0.871	0.698	0.865	0.412	0.435	0.41	0.46	0.637	0.598	0.606	0.621
